This passage reports IC50 results from patent US20230121116A1, “USE OF QUINAZOLINE-BASED TYROSINE KINASE INHIBITORS FOR THE TREATMENT OF CANCERS WITH NRG1 FUSIONS” (Board of Regents, The University of Texas System, priority 2020, published 2023).

By IC50 is commonly meant the concentration that inhibits the measured activity by half. Low values mean inhibition by little substance, high ones a need for much substance.

In this assay the test system is MDA175-VII (NRG1-DOC4 fusion) cells. The assay can be described thus: Cell viability of MDA175-VII (NRG1-DOC4 fusion) cells, Cell Titer Glo assay. The assay is classed as cell-based. Conditions: 72 hours. Here is the method:
FIG. 1A. Representative dose response curves of MDA175-VII (NRG1-DOC4 fusion) treated with the indicated IACS novel quinazoline-based TKIs for 72 hours. Cell viability was determined by Cell Titer Glo Assay.
FIG. 3A. Representative dose response curves of MDA175-VII (NRG1-DOC4 fusion) treated with the indicated anti-HER2 therapy with or without low dose treatment of IACS inhibitors for 72 hours. Cell viability was determined by Cell Titer Glo Assay.
Cell viability was determined by the Cell Titer Glo assay.
(In general: Cellular ATP, detected with luciferase, serves as a proxy for viable cell number.)

Setting [1] is: MDA175-VII (NRG1-DOC4 fusion) cells treated with IACS inhibitors.
Setting [2] is: MDA175-VII (NRG1-DOC4 fusion) cells treated with anti-HER2 antibodies with or without low dose IACS inhibitors.

Turning to `C=CC(=O)N1CCC(Oc2cc3c(Nc4ccc(Cl)c(Cl)c4)ncnc3cc2OC)CC1` [IACS-070979], half-maximal inhibition under setting [1] (IC50) required 0.157 nM.

In turn, `C=CC(=O)N1CCC(Oc2cc3c(Nc4ccccc4)ncnc3cc2OC)CC1` [IACS-070989] had an IC50 under setting [1] of 1.03 nM.

For the molecule `C=CC(=O)N1CCC(Oc2cc3c(Nc4ccc(Br)c(Cl)c4)ncnc3cc2OC)CC1` [IACS-070982], the IC50 under setting [1] was determined as 0.296 nM.

`C=CC(=O)N1CC(Oc2cc3c(Nc4ccc(Br)c(Cl)c4)ncnc3cc2OC)C1` [IACS-070864]: under setting [1], the IC50 amounted to 0.979 nM. This IC50 lies about 3.3-fold higher than the previous one.

In turn, `C=CC(=O)N1CC(Oc2cc3c(Nc4ccc(Cl)c(Cl)c4F)ncnc3cc2OC)C1` [IACS-015293] came in with an IC50 under setting [1] of 0.16 nM.

Turning to `C=CC(=O)N1CCC(Oc2cc3c(Nc4ccc(Cl)c(Cl)c4F)ncnc3cc2OC)C1` (centres unmarked) [IACS-070968], the IC50 under setting [1] worked out at 3.12 nM.

For the molecule `C=CC(=O)N1CC(Oc2cc3c(Nc4ccccc4)ncnc3cc2OC)C1` [IACS-070871], 1.08 nM corresponded to half-maximal inhibition under setting [1] (IC50). This IC50 lies about 2.9-fold lower than the previous one.

On to `C=CC(=O)N1CCC(Oc2cc3c(Nc4ccc(Cl)c(Cl)c4F)c(C#N)cnc3cc2OC)CC1` [IACS-070709], for which, under setting [1], the IC50 was found to be 1.29 nM.

The molecule `C=CC(=O)N1CCC(Oc2cc3c(Nc4ccc(Cl)cc4Cl)ncnc3cc2OC)CC1` [IACS-070980] came in with an IC50 under setting [1] of 4.46 nM. Against the preceding molecule, the IC50 is about 3.5-fold higher.

Turning to `C=CC(=O)N1CC(Oc2ccc3ncnc(Nc4ccc(Cl)c(Cl)c4)c3n2)C1` [IACS-052336], the IC50 under setting [1] amounted to 26.8 nM.

With `C=CC(=O)N1CC(Oc2cc3c(Nc4ccc(Cl)c(Cl)c4)ncnc3cc2OC)C1` [IACS-015285], the IC50 under setting [1] amounted to 0.268 nM.

With “Pertuzumab: recombinant, humanized monoclonal antibody that inhibits dimerization of HER2 [reference compound]”, it took 58.2 nM to reach half-maximal inhibition under setting [2] (IC50).

Under setting [1], `C=CC(=O)N1CC(Oc2cc3c(Nc4ccc(Cl)cc4Cl)ncnc3cc2OC)C1` [IACS-070863] yielded an IC50 of 10.5 nM. That is a double-digit nanomolar value.

Under setting [2], T-DM1 [reference compound] registered an IC50 of 652 nM.
